Reference: ChEMBL document CHEMBL4359901, “Cyclic enaminone as new chemotype for selective cyclooxygenase-2 inhibitory, anti-inflammatory, and analgesic activities” (Eur J Med Chem, 2019)

Assays:
[1] = Selectivity index, ratio of IC50 for inhibition of ovine COX1 to IC50 for inhibition of recombinant human COX2
[2] = tested on: Rattus norvegicus; experiment: Antiinflammatory activity in Wistar albino rat assessed as reduction in carrageenan-induced paw edema at 25 mg/kg, ip measured after 1 hr by plethysmometric method (reference value: 1.43 +/- 0.19 ml); assay type: functional
[3] = Ulcerogenicity in Sprague-Dawley rat assessed as formation of ulcer at 50 mg/kg, po after 1 hr by microscopic analysis; assay type: toxicity, organism-based; settings: in vivo
[4] = tested on: Rattus norvegicus; experiment: Antiinflammatory activity in Wistar albino rat assessed as reduction in carrageenan-induced paw volume at 12.5 mg/kg, ip measured after 2 hrs by plethysmometric method (reference value: 1.58 +/- 0.21 ml); assay type: functional
[5] = tested on: Rattus norvegicus; experiment: Analgesic activity in Wistar albino rat assessed as reaction time at 25 mg/kg, ip measured after 60 mins for 15 secs by hot plate method (reference value: 4.67 +/- 0.52 sec); assay type: functional
[6] = tested on: Rattus norvegicus; experiment: Analgesic activity in Wistar albino rat assessed as reaction time at 25 mg/kg, ip measured after 180 mins for 15 secs by hot plate method (reference value: 3.87 +/- 0.38 sec); assay type: functional
[7] = tested on: Rattus norvegicus; experiment: Analgesic activity in Wistar albino rat assessed as reaction time at 12.5 mg/kg, ip measured after 60 mins for 15 secs by hot plate method (reference value: 4.67 +/- 0.52 sec); assay type: functional
[8] = tested on: Rattus norvegicus; experiment: Analgesic activity in Wistar albino rat assessed as reaction time at 12.5 mg/kg, ip measured after 120 mins for 15 secs by hot plate method (reference value: 4.32 +/- 0.52 sec); assay type: functional
[9] = tested on: Rattus norvegicus; experiment: Analgesic activity in Wistar albino rat assessed as reaction time at 12.5 mg/kg, ip measured after 180 mins for 15 secs by hot plate method (reference value: 3.87 +/- 0.38 sec); assay type: functional
[10] = tested on: Rattus norvegicus; experiment: Antiinflammatory activity in Sprague-Dawley rat model of carrageenan-induced thermal hyperalgesia assessed as paw withdrawal latency time at 30 mg/kg, po administered 1 hr prior to carrageenan challenge and measured after 1 hr by planter test (reference value: 8.88 +/- 0.52 sec); assay type: functional
[11] = tested on: Rattus norvegicus; experiment: Antiinflammatory activity in Sprague-Dawley rat model of carrageenan-induced thermal hyperalgesia assessed as paw withdrawal latency time at 50 mg/kg, po administered 1 hr prior to carrageenan challenge and measured after 2 hrs by planter test (reference value: 6.17 +/- 0.58 sec); assay type: functional
[12] = tested on: Rattus norvegicus; experiment: Antiinflammatory activity in Sprague-Dawley rat model of carrageenan-induced thermal hyperalgesia assessed as paw withdrawal latency time at 30 mg/kg, po administered 1 hr prior to carrageenan challenge and measured after 5 hrs by planter test (reference value: 7.5 +/- 0.74 sec); assay type: functional
[13] = tested on: Rattus norvegicus; experiment: Antiinflammatory activity in Sprague-Dawley rat model of carrageenan-induced thermal hyperalgesia assessed as paw withdrawal latency time at 50 mg/kg, po administered 1 hr prior to carrageenan challenge and measured after 5 hrs by planter test (reference value: 7.5 +/- 0.74 sec); assay type: functional
[14] = tested on: Rattus norvegicus; experiment: Antiinflammatory activity in Sprague-Dawley rat model of carrageenan-induced thermal hyperalgesia assessed as paw withdrawal latency pressure at 50 mg/kg, po administered 1 hr prior to carrageenan challenge and measured after 1 hr by Von-frey test (reference value: 159.88 +/- 4.66 g); assay type: functional
[15] = tested on: Rattus norvegicus; experiment: Antiinflammatory activity in Sprague-Dawley rat model of carrageenan-induced thermal hyperalgesia assessed as paw withdrawal latency pressure at 50 mg/kg, po administered 1 hr prior to carrageenan challenge and measured after 3 hrs by Von-frey test (reference value: 31.65 +/- 3.33 g); assay type: functional
[16] = tested on: Rattus norvegicus; experiment: Antiinflammatory activity in Sprague-Dawley rat model of carrageenan-induced thermal hyperalgesia assessed as paw withdrawal latency pressure at 30 mg/kg, po administered 1 hr prior to carrageenan challenge and measured after 4 hrs by Von-frey test (reference value: 146.61 +/- 1.58 g); assay type: functional
[17] = tested on: Rattus norvegicus; experiment: Antiinflammatory activity in Sprague-Dawley rat model of carrageenan-induced thermal hyperalgesia assessed as paw withdrawal latency pressure at 50 mg/kg, po administered 1 hr prior to carrageenan challenge and measured after 5 hrs by Von-frey test (reference value: 169.58 +/- 4.26 g); assay type: functional
[18] = tested on: Rattus norvegicus; experiment: Antiinflammatory activity in Sprague-Dawley rat model of carrageenan-induced thermal hyperalgesia assessed as paw withdrawal latency pressure at 30 mg/kg, po administered 1 hr prior to carrageenan challenge and measured after 2 hrs by Randall-Selitto test (reference value: 231.13 +/- 3.15 g); assay type: functional
[19] = tested on: Rattus norvegicus; experiment: Antiinflammatory activity in Sprague-Dawley rat model of carrageenan-induced thermal hyperalgesia assessed as paw withdrawal latency pressure at 50 mg/kg, po administered 1 hr prior to carrageenan challenge and measured after 2 hrs by Randall-Selitto test (reference value: 231.13 +/- 3.15 g); assay type: functional
[20] = tested on: Rattus norvegicus; experiment: Antiinflammatory activity in Sprague-Dawley rat model of carrageenan-induced thermal hyperalgesia assessed as paw withdrawal latency pressure at 30 mg/kg, po administered 1 hr prior to carrageenan challenge and measured after 3 hrs by Randall-Selitto test (reference value: 176.84 +/- 8.1 g); assay type: functional
[21] = tested on: Rattus norvegicus; experiment: Antiinflammatory activity in Sprague-Dawley rat model of carrageenan-induced thermal hyperalgesia assessed as paw withdrawal latency pressure at 50 mg/kg, po administered 1 hr prior to carrageenan challenge and measured after 3 hrs by Randall-Selitto test (reference value: 176.84 +/- 8.1 g); assay type: functional
[22] = tested on: Rattus norvegicus; experiment: Antiinflammatory activity in Sprague-Dawley rat model of carrageenan-induced thermal hyperalgesia assessed as paw withdrawal latency pressure at 30 mg/kg, po administered 1 hr prior to carrageenan challenge and measured after 4 hrs by Randall-Selitto test (reference value: 200.08 +/- 10.22 g); assay type: functional
[23] = tested on: Rattus norvegicus; experiment: Antiinflammatory activity in Sprague-Dawley rat model of carrageenan-induced thermal hyperalgesia assessed as paw withdrawal latency pressure at 50 mg/kg, po administered 1 hr prior to carrageenan challenge and measured after 3 hrs by Randall-Selitto test (reference value: […] g); assay type: functional
[24] = tested on: Rattus norvegicus; experiment: Antiinflammatory activity in Sprague-Dawley rat model of carrageenan-induced thermal hyperalgesia assessed as paw withdrawal latency pressure at 50 mg/kg, po administered 1 hr prior to carrageenan challenge and measured after 5 hrs by Randall-Selitto test (reference value: 224.08 +/- 7.12 g); assay type: functional
[25] = Antioxidant activity assessed as DPPH radical scavenging activity at 40 uM/ml incubated for 20 mins by spectrophotometric method relative to control; assay type: functional
[26] = Antioxidant activity assessed as DPPH radical scavenging activity at 80 uM/ml incubated for 20 mins by spectrophotometric method relative to control; assay type: functional
[27] = Antioxidant activity assessed as DPPH radical scavenging activity incubated for 20 mins by spectrophotometric method; assay type: functional
[28] = Cardiotoxicity in Sprague-Dawley rat assessed as SBP rate at 50 mg/kg; assay type: toxicity, organism-based; settings: in vivo
[29] = Cardiotoxicity in Sprague-Dawley rat assessed as heart rate at 50 mg/kg; assay type: toxicity, organism-based; settings: in vivo
[30] = molecular target: Prostaglandin G/H synthase 2 (Homo sapiens) (UniProt P35354); experiment: Inhibition of recombinant human COX2 assessed as reduction in PGF2alpha at 10 uM incubated for 2 mins using arachidonic acid as substrate by ELISA relative to control
Prostaglandin G/H synthase 2 (Homo sapiens), sequence (P35354 whole entry, looked up): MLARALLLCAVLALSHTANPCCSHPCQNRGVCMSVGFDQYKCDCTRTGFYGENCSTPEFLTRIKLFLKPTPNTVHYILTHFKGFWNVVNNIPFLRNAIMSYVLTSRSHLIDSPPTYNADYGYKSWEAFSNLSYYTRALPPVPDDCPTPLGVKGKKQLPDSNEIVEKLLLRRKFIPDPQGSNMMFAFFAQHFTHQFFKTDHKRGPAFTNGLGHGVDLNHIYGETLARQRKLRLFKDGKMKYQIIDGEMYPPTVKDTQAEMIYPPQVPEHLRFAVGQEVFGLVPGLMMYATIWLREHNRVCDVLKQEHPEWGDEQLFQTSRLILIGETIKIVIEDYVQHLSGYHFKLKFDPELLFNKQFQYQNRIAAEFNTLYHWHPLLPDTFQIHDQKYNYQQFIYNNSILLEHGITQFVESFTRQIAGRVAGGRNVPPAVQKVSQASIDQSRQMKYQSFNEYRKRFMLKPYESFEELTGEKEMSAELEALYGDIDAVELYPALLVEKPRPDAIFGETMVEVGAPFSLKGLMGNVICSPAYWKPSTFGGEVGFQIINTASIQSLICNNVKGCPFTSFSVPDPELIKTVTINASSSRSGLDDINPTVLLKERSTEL

CC(=O)N(C1=CC(=O)CCC1)c1ccc(Cl)cc1
Ratio IC50 [1]: 109
Activity [2]: 1.25 mL
UI [3]: 0
Activity [4]: 1.26 mL
Time [5]: 7.27 s
Time [6]: 11.88 s
Time [7]: 6.85 s
Time [8]: 10.15 s
Time [9]: 8.22 s
Time [10]: 10.58 s
Time [11]: 9.67 s
Time [12]: 6.37 s
Time [13]: 9.3 s
Activity [14]: 170 g
Activity [15]: 166.86 g
Activity [16]: 159.47 g
Activity [17]: 168.65 g
Activity [18]: 262.26 g
Activity [19]: 268.96 g
Activity [20]: 249.49 g
Activity [21]: 263.26 g
Activity [22]: 258.94 g
Activity [23]: 265.61 g
Activity [24]: 266.61 g
Activity [25]: 48%
Activity [26]: 83.9%
IC50 [27]: 48 µM
Activity [28]: Non-Toxic
Activity [29]: Non-Toxic
inhibition [30]: 96.9%
